Data reported in PubChem BioAssay (NCI).
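Interpolation was linear, between the two tested concentrations surrounding the appropriate level; five concentrations were tested over 48 hours in 96-well plates. Here, GI50 denotes the concentration required for 50% inhibition of growth. Definition used: TGI = concentration required for complete inhibition of growth.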

Experiments:
Test in all cases: DTP human tumour cell line panel, 48 h
786-0 renal = tested on: 786-0 renal
A498 renal = tested on: A498 renal
A549 NSCLC = tested on: A549 NSCLC
ACHN renal = tested on: ACHN renal
BT-549 breast = tested on: BT-549 breast
CAKI-1 renal = tested on: CAKI-1 renal
CCRF-CEM leukemia = tested on: CCRF-CEM leukemia
COLO 205 colon = tested on: COLO 205 colon
DU-145 prostate = tested on: DU-145 prostate
EKVX NSCLC = tested on: EKVX NSCLC
HCC-2998 colon = tested on: HCC-2998 colon
HCT-116 colon = tested on: HCT-116 colon
HCT-15 colon = tested on: HCT-15 colon
HL-60(TB) leukemia = tested on: HL-60(TB) leukemia
HOP-62 NSCLC = tested on: HOP-62 NSCLC
HOP-92 NSCLC = tested on: HOP-92 NSCLC
HS 578T breast = tested on: HS 578T breast
HT29 colon = tested on: HT29 colon
IGROV1 ovarian = tested on: IGROV1 ovarian
K-562 leukemia = tested on: K-562 leukemia
KM12 colon = tested on: KM12 colon
LOX IMVI melanoma = tested on: LOX IMVI melanoma
M14 melanoma = tested on: M14 melanoma
MALME-3M melanoma = tested on: MALME-3M melanoma
MCF7 breast = tested on: MCF7 breast
MDA-MB-231 breast = tested on: MDA-MB-231 breast
MDA-MB-435 = tested on: MDA-MB-435
MOLT-4 leukemia = tested on: MOLT-4 leukemia
NCI-H226 lung = tested on: NCI-H226 lung
NCI-H23 lung = tested on: NCI-H23 lung
NCI-H460 lung = tested on: NCI-H460 lung
NCI-H522 lung = tested on: NCI-H522 lung
NCI/ADR-RES ovarian = tested on: NCI/ADR-RES ovarian
OVCAR-3 ovarian = tested on: OVCAR-3 ovarian
OVCAR-4 ovarian = tested on: OVCAR-4 ovarian
OVCAR-5 ovarian = tested on: OVCAR-5 ovarian
OVCAR-8 ovarian = tested on: OVCAR-8 ovarian
PC-3 prostate = tested on: PC-3 prostate
RPMI-8226 leukemia = tested on: RPMI-8226 leukemia
RXF 393 renal = tested on: RXF 393 renal
SF-268 CNS = tested on: SF-268 CNS
SF-295 CNS = tested on: SF-295 CNS
SF-539 CNS = tested on: SF-539 CNS
SK-MEL-2 melanoma = tested on: SK-MEL-2 melanoma
SK-MEL-28 melanoma = tested on: SK-MEL-28 melanoma
SK-MEL-5 melanoma = tested on: SK-MEL-5 melanoma
SK-OV-3 ovarian = tested on: SK-OV-3 ovarian
SN12C renal = tested on: SN12C renal
SNB-19 CNS = tested on: SNB-19 CNS
SNB-75 CNS = tested on: SNB-75 CNS
SR leukemia = tested on: SR leukemia
SW-620 colon = tested on: SW-620 colon
T-47D breast = tested on: T-47D breast
TK-10 renal = tested on: TK-10 renal
U251 CNS = tested on: U251 CNS
UACC-257 melanoma = tested on: UACC-257 melanoma
UACC-62 melanoma = tested on: UACC-62 melanoma
UO-31 renal = tested on: UO-31 renal

SMILES: CCCCCCCCOc1ccc(/C=N/Nc2cc(C)nc3ccc(Cl)cc23)cc1
- GI50 (786-0 renal): 1860 nM
- TGI (786-0 renal): 3660 nM
- GI50 (A498 renal): 1980 nM
- TGI (A498 renal): 3450 nM
- GI50 (A549 NSCLC): 1700 nM
- TGI (A549 NSCLC): 3520 nM
- GI50 (ACHN renal): 1740 nM
- TGI (ACHN renal): 3130 nM
- GI50 (BT-549 breast): 14200 nM
- TGI (BT-549 breast): 31400 nM
- GI50 (CAKI-1 renal): 1690 nM
- TGI (CAKI-1 renal): 3110 nM
- GI50 (CCRF-CEM leukemia): 2040 nM
- TGI (CCRF-CEM leukemia): 5280 nM
- GI50 (COLO 205 colon): 1820 nM
- TGI (COLO 205 colon): 3560 nM
- GI50 (DU-145 prostate): 1760 nM
- TGI (DU-145 prostate): 3320 nM
- GI50 (EKVX NSCLC): 1800 nM
- TGI (EKVX NSCLC): 3330 nM
- GI50 (HCC-2998 colon): 2030 nM
- TGI (HCC-2998 colon): 3590 nM
- GI50 (HCT-116 colon): 1830 nM
- TGI (HCT-116 colon): 3810 nM
- GI50 (HCT-15 colon): 1850 nM
- TGI (HCT-15 colon): 3380 nM
- GI50 (HL-60(TB) leukemia): 2000 nM
- TGI (HL-60(TB) leukemia): 4460 nM
- GI50 (HOP-62 NSCLC): 1480 nM
- TGI (HOP-62 NSCLC): 3090 nM
- GI50 (HOP-92 NSCLC): 1510 nM
- TGI (HOP-92 NSCLC): 3020 nM
- GI50 (HS 578T breast): 2230 nM
- TGI (HS 578T breast): 4510 nM
- GI50 (HT29 colon): 1810 nM
- TGI (HT29 colon): 3340 nM
- GI50 (IGROV1 ovarian): 1840 nM
- TGI (IGROV1 ovarian): 3670 nM
- GI50 (K-562 leukemia): 1660 nM
- TGI (K-562 leukemia): 4240 nM
- GI50 (KM12 colon): 1850 nM
- TGI (KM12 colon): 3440 nM
- GI50 (LOX IMVI melanoma): 1660 nM
- TGI (LOX IMVI melanoma): 3170 nM
- GI50 (M14 melanoma): 1750 nM
- TGI (M14 melanoma): 3510 nM
- GI50 (MALME-3M melanoma): 1850 nM
- TGI (MALME-3M melanoma): 3360 nM
- GI50 (MCF7 breast): 1940 nM
- TGI (MCF7 breast): 3910 nM
- GI50 (MDA-MB-231 breast): 1810 nM
- TGI (MDA-MB-231 breast): 3470 nM
- GI50 (MDA-MB-435): 1730 nM
- TGI (MDA-MB-435): 3160 nM
- GI50 (MOLT-4 leukemia): 2050 nM
- TGI (MOLT-4 leukemia): 4930 nM
- GI50 (NCI-H226 lung): 1700 nM
- TGI (NCI-H226 lung): 3620 nM
- GI50 (NCI-H23 lung): 1900 nM
- TGI (NCI-H23 lung): 3840 nM
- GI50 (NCI-H460 lung): 2010 nM
- TGI (NCI-H460 lung): 3870 nM
- GI50 (NCI-H522 lung): 1890 nM
- TGI (NCI-H522 lung): 3860 nM
- GI50 (NCI/ADR-RES ovarian): 1970 nM
- TGI (NCI/ADR-RES ovarian): 4070 nM
- GI50 (OVCAR-3 ovarian): 2170 nM
- TGI (OVCAR-3 ovarian): 3820 nM
- GI50 (OVCAR-4 ovarian): 1820 nM
- TGI (OVCAR-4 ovarian): 3550 nM
- GI50 (OVCAR-5 ovarian): 1790 nM
- TGI (OVCAR-5 ovarian): 3200 nM
- GI50 (OVCAR-8 ovarian): 2140 nM
- TGI (OVCAR-8 ovarian): 4840 nM
- GI50 (PC-3 prostate): 1500 nM
- TGI (PC-3 prostate): 3040 nM
- GI50 (RPMI-8226 leukemia): 2010 nM
- TGI (RPMI-8226 leukemia): 4630 nM
- GI50 (RXF 393 renal): 1550 nM
- TGI (RXF 393 renal): 2940 nM
- GI50 (SF-268 CNS): 2210 nM
- TGI (SF-268 CNS): 4180 nM
- GI50 (SF-295 CNS): 1830 nM
- TGI (SF-295 CNS): 3450 nM
- GI50 (SF-539 CNS): 1860 nM
- TGI (SF-539 CNS): 3290 nM
- GI50 (SK-MEL-2 melanoma): 1970 nM
- TGI (SK-MEL-2 melanoma): 3590 nM
- GI50 (SK-MEL-28 melanoma): 1780 nM
- TGI (SK-MEL-28 melanoma): 3200 nM
- GI50 (SK-MEL-5 melanoma): 1730 nM
- TGI (SK-MEL-5 melanoma): 3160 nM
- GI50 (SK-OV-3 ovarian): 1650 nM
- TGI (SK-OV-3 ovarian): 3100 nM
- GI50 (SN12C renal): 1780 nM
- TGI (SN12C renal): 3350 nM
- GI50 (SNB-19 CNS): 2000 nM
- TGI (SNB-19 CNS): 3830 nM
- GI50 (SNB-75 CNS): 1860 nM
- TGI (SNB-75 CNS): 3490 nM
- GI50 (SR leukemia): 1610 nM
- TGI (SR leukemia): 7120 nM
- GI50 (SW-620 colon): 1890 nM
- TGI (SW-620 colon): 3630 nM
- GI50 (T-47D breast): 1920 nM
- TGI (T-47D breast): 4090 nM
- GI50 (TK-10 renal): 1910 nM
- TGI (TK-10 renal): 3330 nM
- GI50 (U251 CNS): 1820 nM
- TGI (U251 CNS): 3390 nM
- GI50 (UACC-257 melanoma): 1750 nM
- TGI (UACC-257 melanoma): 4030 nM
- GI50 (UACC-62 melanoma): 1870 nM
- TGI (UACC-62 melanoma): 3490 nM
- GI50 (UO-31 renal): 1550 nM
- TGI (UO-31 renal): 2930 nM
